Reference: ChEMBL document CHEMBL1127459, “Synthesis and biological activity of 3-[2-(dimethylamino)ethyl]-5-[(1,1-dioxo-5-methyl-1,2,5-thiadiazolidin- 2-yl)-methyl]-1H-indole and analogues: agonists for the 5-HT1D receptor” (J Med Chem, 1994)
pEC50, pIC50: −log10 of the molar value.

Tests used:
[1] = molecular target: 5-hydroxytryptamine receptor 1D (Sus scrofa, UniProt P79400); experiment: Displacement of [3H]5-HT binding to 5-hydroxytryptamine 1D receptor from pig caudate membrane
[2] = Partition coefficient at pH 7.4; format: physicochemical; conditions: octanol/water
[3] = species: Oryctolagus cuniculus; experiment: Ability to contract saphenous vein of New Zealand white rabbit.; format: functional
[4] = molecular target: 5-HT1A receptor (Sus scrofa, UniProt A0A4X1UTF5); experiment: Displacement of [3H]8-OH-DPAT binding to 5-hydroxytryptamine 1A receptor from pig cortex
[5] = molecular target: 5-hydroxytryptamine receptor 2A (Rattus norvegicus, UniProt P14842); experiment: Displacement of [3H]DOB binding to 5-hydroxytryptamine 2A receptor from rat cortex homogenate
[6] = molecular target: T1, Serotonin 3 (5-HT3) receptor (Rattus norvegicus, UniProt P35563+Q9JJ16); experiment: Displacement of [3H]-Q-ICS 205-930 binding to 5-hydroxytryptamine 3 receptor from rat cortex homogenate
T1 sequence (P35563 whole entry): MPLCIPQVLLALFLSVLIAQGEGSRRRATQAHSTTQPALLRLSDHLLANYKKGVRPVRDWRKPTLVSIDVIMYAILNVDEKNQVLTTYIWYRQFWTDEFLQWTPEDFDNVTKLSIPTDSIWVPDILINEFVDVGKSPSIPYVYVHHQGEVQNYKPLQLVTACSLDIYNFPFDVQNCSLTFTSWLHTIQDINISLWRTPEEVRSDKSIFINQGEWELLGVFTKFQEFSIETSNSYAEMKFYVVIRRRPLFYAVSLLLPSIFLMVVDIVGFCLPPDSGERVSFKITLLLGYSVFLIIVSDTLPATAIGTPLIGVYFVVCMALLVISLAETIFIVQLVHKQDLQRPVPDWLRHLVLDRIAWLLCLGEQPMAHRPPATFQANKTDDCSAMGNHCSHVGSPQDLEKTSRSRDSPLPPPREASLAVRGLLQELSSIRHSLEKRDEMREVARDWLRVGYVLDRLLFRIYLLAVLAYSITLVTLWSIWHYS
T1 sequence (Q9JJ16 whole entry): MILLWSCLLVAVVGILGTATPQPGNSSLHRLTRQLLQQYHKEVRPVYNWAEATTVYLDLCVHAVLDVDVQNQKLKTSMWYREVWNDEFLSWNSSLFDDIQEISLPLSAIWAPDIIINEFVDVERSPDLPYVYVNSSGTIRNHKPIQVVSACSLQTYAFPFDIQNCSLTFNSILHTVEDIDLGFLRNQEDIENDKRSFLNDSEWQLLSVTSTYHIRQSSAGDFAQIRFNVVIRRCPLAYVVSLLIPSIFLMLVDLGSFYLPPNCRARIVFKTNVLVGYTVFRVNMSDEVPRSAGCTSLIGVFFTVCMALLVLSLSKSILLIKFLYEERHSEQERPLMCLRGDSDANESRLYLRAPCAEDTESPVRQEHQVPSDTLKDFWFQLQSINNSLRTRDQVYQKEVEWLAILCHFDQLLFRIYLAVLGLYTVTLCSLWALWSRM

[7] = species: Oryctolagus cuniculus; experiment: Ability to contract saphenous vein of New Zealand white rabbit; format: functional

Chain of 5-hydroxytryptamine receptor 2A (P14842 whole entry): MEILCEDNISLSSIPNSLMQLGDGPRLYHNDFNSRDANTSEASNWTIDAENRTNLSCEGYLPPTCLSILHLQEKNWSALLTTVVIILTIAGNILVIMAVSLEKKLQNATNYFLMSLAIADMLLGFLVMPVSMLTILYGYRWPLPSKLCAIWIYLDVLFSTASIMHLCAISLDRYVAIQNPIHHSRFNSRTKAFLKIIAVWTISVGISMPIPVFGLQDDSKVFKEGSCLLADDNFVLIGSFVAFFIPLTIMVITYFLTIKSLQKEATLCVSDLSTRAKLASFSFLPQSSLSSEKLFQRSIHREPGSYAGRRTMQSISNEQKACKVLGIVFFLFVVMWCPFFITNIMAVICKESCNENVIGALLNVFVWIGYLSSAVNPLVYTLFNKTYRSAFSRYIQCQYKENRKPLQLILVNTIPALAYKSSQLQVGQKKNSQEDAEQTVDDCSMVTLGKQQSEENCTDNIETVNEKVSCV
Chain of 5-hydroxytryptamine receptor 1D (P79400 whole entry): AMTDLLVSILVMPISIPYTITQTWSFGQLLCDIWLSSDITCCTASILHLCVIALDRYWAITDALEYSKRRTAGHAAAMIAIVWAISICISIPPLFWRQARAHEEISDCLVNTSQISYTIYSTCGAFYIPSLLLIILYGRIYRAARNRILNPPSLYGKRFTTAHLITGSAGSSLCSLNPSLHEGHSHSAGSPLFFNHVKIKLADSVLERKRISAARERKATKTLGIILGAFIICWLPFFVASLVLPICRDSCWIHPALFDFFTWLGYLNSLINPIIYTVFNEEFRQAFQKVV

Row | Compound | pIC50 [1] | logD [2] | pEC50 [3] | pIC50 [4] | pIC50 [5] | pIC50 [6] | pEC50 [7]
1 | CN(C)CCc1c[nH]c2ccc(CN3CC(C)(C)NS3(=O)=O)cc12 | 7.00 | -0.39 | 5.60 | 6.60 | < 5.00 | – | –
2 | CN(C)CCc1c[nH]c2ccc(CN3CCCN(C)S3(=O)=O)cc12 | 7.20 | -0.02 | 5.60 | 6.90 | < 5.00 | < 5.00 | –
3 | CN(C)CCc1c[nH]c2ccc(CN3CCN(C)S3(=O)=O)cc12 | 7.20 | -0.68 | – | 6.10 | < 5.00 | < 5.00 | 6.20
4 | CC(C)N1CCN(Cc2ccc3[nH]cc(CCN(C)C)c3c2)S1(=O)=O | 7.00 | 0.16 | – | 6.30 | < 5.00 | – | –
5 | CC(=O)Nc1ccc(CN2CCN(Cc3ccc4[nH]cc(CCN(C)C)c4c3)S2(=O)=O)cc1 | 7.70 | 0.42 | 6.30 | 6.70 | 5.10 | – | –
6 | CN(C)CCc1c[nH]c2ccc(CN3CCNS3(=O)=O)cc12 | 7.00 | -0.97 | – | 6.10 | < 5.00 | – | 5.60
7 | CN(C)CCc1c[nH]c2ccc(CN3C(C)(C)CNS3(=O)=O)cc12 | 6.70 | -0.78 | 5.20 | 6.00 | < 5.00 | – | –
8 | CN(C)CCc1c[nH]c2ccc(CCN3CCNS3(=O)=O)cc12 | 7.40 | – | – | 6.90 | 5.30 | – | –
9 | CN1CCN(Cc2ccc3[nH]cc(CCN)c3c2)S1(=O)=O | 6.50 | – | – | 6.20 | < 5.00 | – | –
10 | CNCCc1c[nH]c2ccc(CN3CCN(C)S3(=O)=O)cc12 | 7.00 | -1.71 | 5.70 | 6.10 | < 5.00 | – | –
11 | CCN1CCN(CCc2ccc3[nH]cc(CCN(C)C)c3c2)S1(=O)=O | 7.40 | – | – | 6.90 | 5.70 | – | 5.80
12 | CN(C)CCc1c[nH]c2ccc(N3CCN(C)S3(=O)=O)cc12 | 7.00 | -0.92 | – | 6.20 | < 5.00 | – | 5.50
13 | CN(C)CCc1c[nH]c2ccc(CCN3CCN(C)S3(=O)=O)cc12 | 7.40 | -0.57 | 5.80 | 6.70 | 5.60 | – | –
14 | CN1CCN(Cc2ccc3scc(CCN)c3c2)S1(=O)=O | 6.40 | – | – | 5.70 | 5.70 | – | 4.90
15 | CNS(=O)(=O)Cc1ccc2[nH]cc(CCN(C)C)c2c1 | – | – | – | 6.30 | – | < 5.00 | –
16 | CN(C)CCc1c[nH]c2ccc(N3CCN(Cc4ccccc4)S3(=O)=O)cc12 | 7.70 | – | – | 7.10 | 5.30 | – | –
